From patent publication US5968955A, “Disubstituted piperidine derivatives as neuroprotective agents” (Pharmacia & Upjohn S.p.A., priority 1995, dated 1999)

Key:
[1] = system: mixed cortical neuronal cultures; assay: neuroprotection against NMDA induced toxicity in mixed cortical neuronal cultures (Trypan Blue Dye Exclusion); assay type: cell-based, rat (foetal rats); conditions: prevention of toxicity by NMDA 500 μM, 20 min exposure, 3 min preincubation, viability after 24 h
Description: The efficacy of the compounds of the invention as neuroprotective agents, based upon their ability to prevent EEA induced toxicity in vitro, was evaluated in mixed cortical neuronal cultures, following the method reported below.
Mixed cortical neuronal cultures from foetal rats at 16 days of gestation were prepared as described by Choi (J. Neur. Sci. 7: 357-368, 1987).
Briefly, dissociated cells were plated on poly-L-lysine coated multiwell plates at density of 1*10^5 cells/cm^2 in MEM with Earle's salts supplemented with 21 mM D-glucose, 2 mM L-glutamine, 50 μg/ml Streptomicin, 50 IU Penicillin, 10% Foetal Calf Serum and 10% Horse Serum. Cultures were kept at 37° C., 5% CO2 and survived about 5 weeks. After 7 days in vitro, astrocites proliferation was inhibited by adding 10 μM Cytosine Arabinoside for 48 hours; the medium was subsequently substituted twice a week with a fresh medium without foetal calf serum (Hatley, J. Pharm. and Exp. Ther. 250 (II);752-758, 1989).
Only nature cortical cultures, from 14 DIV on, were used for the study.
Experiments were performed at 25° C. as follows: cells were washed once with a Locke's buffer, (128 mM NaCl, […] KCl, 1.2 mM Na2 HPO4, 2.7 mM CaCl2, 20 mM Hepes and 10 mM D-glucose) pH=7.4, then preincubated with the test compounds for 3 min. followed by a 20 min. exposure to N-methyl-D-aspartate (NMDA) (500 μM).
The incubation was stopped by removing Locke's buffer and substituting the conditioned medium. After 24 hours at 37° C., 5% CO2, Trypan Blue Dye Exclusion Test (0.04%) was used for evaluating the cells viability.

[2] = system: focal ischemia in mice (Middle Cerebral Artery occlusion); assay: antiischemic activity in vivo in the model of focal ischemia in mice (MCA electrocoagulation), infarct volume; set-up: species or system mice (male Swiss CD); conditions: male Swiss mice; for Infarct volume: Means ± SEM after MCA occlusion, day 4, 7 mg/Kg i.p. 5 min and 6 h after ischemia, then twice a day on days 2, 3 and 4, saline 20.9 ± 1.7, P < 0.01 from controls
Description: The antiischemic activity of the compounds of the present invention was evaluated in vivo in the model of focal ischemia in mice.
Focal ischemia was produced in mice by electrocoagulation of the Middle Cerebral Artery (MCA) according the procedure reported by Welsh et al. (Welsh F A, Sakamoto T, McKee A, Sims R E, J Neurochem: 49: 846-851, 1987). Briefly, male Swiss CD mice (C. River, Milan, Italy) were anesthetised with chloral hydrate (500 mg/Kg i.p.); an incision was made on the temporo-parietal region of the head and a small burr hole was drilled into the lateral outer surface of the skull just over the MCA. The stem of the MCA was occluded by microbipolar coagulation. Animals were maintained under an heating lamp during surgery and for two hours afterwards.
Four days after the occlusion, mice were decapitated and the brains stored a -20° C. until sectioned for histological examination.
Coronal sections (50 μm thick) of the frozen brains were taken every 1.00 mm in order to evaluate the infarct volume.
The slices were stained with cresyl violet and the cortical infarct area of each slice was determined by an image analyzing system (Ibas 20, Kontron, Milan, Italy). Infarct volume was calculated from the infarct area on each slice and the distance between succeeding slices.
The treatment schedule consisted in the administration of the tested compound 5 min and 6 h after ischemia during the first day after surgery and then twice a day on days 2, 3 and 4 according to published data (Gotti B. et al.; Brain Research, 522,290-307, 1990). The tested compounds were given i.p. at the dose of 7 mg/Kg.
Dosing was performed till sacrifice. The time schedule, the doses and the route of administration of the tested compounds were selected on the basis of preliminary experiments.

Structure (SMILES)	EC50 ([1]; Rattus norvegicus) [nM]	also measured
ON=C(CN1CCC(Cc2ccccc2)CC1)c1cc(Br)no1 [Compound 17, (±)-2-(4-Benzyl-piperidin-1-yl)-1-(3-bromo-isoxazol-5-yl)-ethan-1-one-oxyme]		EC50 [1]: 2130 nM
O=C(c1ccc(F)cc1)C1CCN(CC(O)c2cc(Br)no2)CC1 (centres unmarked) [Compound 25, 2-[4-(4-fluoro-benzoyl)piperidin-1-yl]-1-(3-bromo-isoxazol-5-yl)-ethan-1-ol]	22000	
OC(CN1CCC(Cc2ccccc2)CC1)c1cc(Br)no1 (racemic) [Compound 1, (±)-2-(4-Benzyl-piperidin-1-yl)-1-(3-bromo-isoxazol-5-yl) -ethan-1-ol]	2020	
COc1cc(C(O)CN2CCC(C(=O)c3ccc(F)cc3)CC2)on1 (racemic) [Compound 27, (±)2-[4-(p-Fluoro-benzoyl)-piperidin-1-yl]-1-(3-methoxy-isoxazol-5-yl)-ethan-1-ol]	640	
COc1cc(C(O)CN2CCC(Cc3ccccc3)CC2)on1 (racemic) [Compound 3, (±)-2-(4-Benzyl-piperidin-1-yl)-1-(3-methoxy-isoxazol-5-yl)-ethan-1-ol]	3290	Effect on infarct volume compared with saline-treated mice (in words) ([2]; 7 mg/Kg i.p., day 4, versus saline): significantly reduce infarct volume; Infarct volume ([2]; 7 mg/kg): 13.6 ± 1.5 mm^3; Infarct volume ([2]; listed as Example 2, 7 mg/kg): 13.6±1.5 mm^3
